{"source": "patent US20230046078A1", "about": "“METHODS OF USING SUBSTITUTED FLAVONES FOR TREATING BONE DISORDERS” (EMORY UNIVERSITY, priority 2021, published 2023)", "key": {"BDNF/TrkB signaling": {"tested_on": "BDNF/TrkB signaling", "test": "Immunoblotting of p-TrkB signaling in bone marrow after oral R13", "assay_type": "in vivo, mice", "conditions": "R13-derived 7,8-DHF after oral administration of R13"}, "MC3T3-E1 cells [1]": {"tested_on": "MC3T3-E1 cells", "assay_type": "cell-based, Murine", "conditions": "OIM, 4 days"}, "AEP": {"tested_on": "AEP", "test": "AEP activity assay on MC3T3-E1 cell lysates", "assay_type": "cell-based, Murine", "conditions": "MC3T3 cells in OIM; substrate Z-Ala-Ala-Asn-AMC", "protocol": "Cell lysates (10 μg) were incubated in 200 μl assay buffer (20 mM citric acid, 60 mM Na2HPO4, 1 mM EDTA, 0.1% CHAPS, and 1 mM DTT, pH 6.0) containing 20 μM δ-secretase substrate Z-Ala-Ala-Asn-AMC (Bachem, Bubendorf, Switzerland). AMC released by substrate cleavage was quantified by measuring at 460 nm in a fluorescence plate reader at 37° C. for 2 h in kinetic mode."}, "MC3T3-E1 cells [2]": {"tested_on": "MC3T3-E1 cells", "assay_type": "cell-based, Murine", "conditions": "OIM, four days", "protocol": "Total RNA was isolated by TRIzol (Life Technologies, Carlsbad, Calif.). Reverse transcription was performed with SuperScript III reverse transcriptase (Life Technologies). Gene-specific primers and probes were designed and bought from Taqman (Life Technologies). All real-time PCR reactions were performed using the ABI 7500-Fast Real-Time PCR System and the Taqman Universal Master Mix Kit (Life Technologies). The relative quantification of gene expression was calculated using the ΔΔCt method. Predesigned real-time PCR primers from Applied Biosystems (Waltham, Mass.) were used for the analysis of Opg (Tnfrsf11b; Mm0043545_m1), RANK-L (Tnfsf11; Mm00441908_m1), AEP (Lgmn; Mm01325350_m1), GAPDH (Gapdh; Mm99999915_g1)."}, "MC3T3-E1 cells [3]": {"tested_on": "MC3T3-E1 cells", "test": "ELISA of OPG and RANK-L secreted into the medium of MC3T3 cells", "assay_type": "cell-based, Murine", "conditions": "OIM; vs OIM alone", "excerpt": "FIG. 9, Panel A contains representative images of ALP staining in […] cells treated with BDNF or 7,8-DHF combined with or without K252a for 14 days (n=3 independent experiments) (Scale bar, 5 mm (upper panel), 200 μm (lower panel)). […] FIG. 9, Panel C contains Western blots for MC3T3 cells cultured in complete medium or osteogenic induction medium (OIM) with BDNF or 7,8 DHF combined with or without K252a for 4 days. […] FIG. 9, Panel D contains graphs of the relative protein levels of C/EBPP, p-C/EBPβ, AEP, RANK-L, OPG, Osterix, p-TrkB/TrkB and p-Akt/AKT in MC3T3 cells cultured in the complete medium or OIM with BDNF or 7,8-DHF combined with or without K252a for four days. Data are shown as mean±SEM of three independent experiments, one-way ANOVA. Data are shown in each graph from left to right as 1) Control, 2) OIM+DMSO, 3) OIM+BDNF, 4) OIM+7,8-DHF, 5) OIM+BDNF+K252a, and 6) OIM+7,8-DHF+K252a. FIG. 9, Panel E contains graphs of an AEP enzymatic activity assay. BDNF and 7,8-DHF inhibit AEP activities, and K252a abolish BDNF and 7,8-DHF's effects. Data are shown as mean±SEM of 3 independent experiments, one-way ANOVA. Data are shown in each graph from left to right as 1) Control, 2) OIM+DMSO, 3) OIM+BDNF, 4) OIM+7,8-DHF, 5) OIM+BDNF+K252a, and 6) OIM+7,8-DHF+K252a. FIG. 9, Panel F contains graphs of qPCR results showing that OPG mRNA expression increases in MC3T3 cells after 7,8-DHF treatment for four days. Data are shown as mean±SEM of three independent experiments, one-way ANOVA. Data are shown in each graph from left to right as 1) Control, 2) OIM+DMSO, 3) OIM+BDNF, 4) OIM+7,8-DHF, 5) OIM+BDNF+K252a, and 6) OIM+7,8-DHF+K252a. FIG. 9, Panel G contains graphs showing that 7,8-DHF increases OPG and decreases the RANK-L/OPG ratio. Levels of OPG and RANK-L proteins secreted into the medium were measured by ELISA. Data are shown as mean±SEM of 3 independent experiments, one-way ANOVA. Data are shown in each graph from left to right as 1) Control, 2) OIM+DMSO, 3) OIM+BDNF, 4) OIM+7,8-DHF, 5) OIM+BDNF+K252a, and 6) OIM+7,8-DHF+K252a."}, "TrkB": {"tested_on": "TrkB", "conditions": "primary neurons; read-out: EC50 for activating TrkB; cited from earlier work"}, "MC3T3-E1 cells [4]": {"tested_on": "MC3T3-E1 cells", "conditions": "OIM", "quoted_text": "MC3T3-E1 cells were seeded onto plates in complete medium and cultured for 24 days, until the cells reached 70% confluence.\nMC3T3-E1 and RAW 264.7 cells were washed with ice-cold PBS and lysed in (50 mM Tris, pH 7.4, 40 mM NaCl, 1 mM EDTA, 0.5% Triton X-100, 1.5 mM Na3VO4, 50 mM NaF, 10 mM sodium pyrophosphate, 10 mM sodium β-glycerophosphate, supplemented with protease inhibitor cocktail) at 4° C. for 0.5 h, and centrifuged for 25 min at 15,000 rpm. The supernatant was boiled in SDS loading buffer. After SDS-PAGE, the samples were transferred to a nitrocellulose membrane. The membrane was blocked with TBS containing 5% nonfat milk and 0.1% Tween 20 (TBST) at room temperature for 2 hours, followed by the incubation with primary antibody at 4° C. overnight, and with the secondary antibody at room temperature for 2 hours. After washing with TBST, the membrane was developed using the enhanced chemiluminescent (ECL) detection system.\nTo further interrogate the molecular mechanism of 7,8-DHF in promoting OPG expression, a time course study in MC3T3-E1 cells in the presence of OIM was conducted."}}, "note": "pEC50: −log10 of the molar value. “Also recorded” adds a separate entry of the source."}
{"smiles": "O=c1cc(-c2ccccc2)oc2c(O)c(O)ccc12", "note": "[7,8-DHF]", "values": [{"measurement": "BDNF/TrkB signaling in the bone marrow (p-TrkB, AKT, MAPK phosphorylation)", "setting": "BDNF/TrkB signaling", "result": "activates"}, {"measurement": "AEP expression", "setting": "MC3T3-E1 cells [1]", "result": "diminished"}, {"measurement": "RANK-L protein (Western blot)", "setting": "MC3T3-E1 cells [1]", "result": "augmentation"}, {"measurement": "AEP protease activities", "setting": "AEP", "result": "greatly blocked; also recorded: inhibit"}, {"measurement": "RANK-L mRNA", "setting": "MC3T3-E1 cells [2]", "result": "elevated"}, {"measurement": "OPG protein secreted into the medium", "setting": "MC3T3-E1 cells [3]", "result": "further augmented; also recorded: increases"}, {"measurement": "RANK-L protein secreted into the medium", "setting": "MC3T3-E1 cells [3]", "result": "further augmented"}, {"measurement": "RANK-L/OPG ratio (ELISA)", "setting": "MC3T3-E1 cells [3]", "result": "OIM alone were significantly higher than BDNF and 7,8-DHF; also recorded: decreases"}, {"measurement": "pEC50", "setting": "TrkB", "result": "~7.30"}, {"measurement": "CREB or c-Jun levels", "setting": "MC3T3-E1 cells [4]; siRNA experiment", "result": "without interfering"}, {"measurement": "p-Akt", "setting": "MC3T3-E1 cells [4]; time course 0-60 min", "result": "activated"}, {"measurement": "p-C/EBPβ signal", "setting": "MC3T3-E1 cells [4]; time course 0-60 min", "result": "time-dependently increased"}, {"measurement": "p-CREB signal", "setting": "MC3T3-E1 cells [4]; time course 0-60 min", "result": "time-dependently increased"}, {"measurement": "p-MAPK", "setting": "MC3T3-E1 cells [4]; time course 0-60 min", "result": "activated"}, {"measurement": "p-TrkB", "setting": "MC3T3-E1 cells [4]; time course 0-60 min", "result": "activated"}, {"measurement": "p-c-Jun signal", "setting": "MC3T3-E1 cells [4]; time course 0-60 min", "result": "time-dependently increased"}]}
